Each structure is given as a SMILES string.

This series has as its system Chinese Hamster Ovary (CHO-K1) cells. As to the kind of experiment: In vitro micronucleus assay (genotoxicity). As to conditions: SiNc-NP 90 μg/mL, 24 hours; MMS 50 μg/mL positive control. The series is classed as cell-based. How it is done: Genotoxicity describes the property of chemical agents that damages the genetic information within a cell causing mutations, which may lead to cancer. An in vitro micronucleus assay was used to determine the genotoxicity of SiNc-NP on Chinese Hamster Ovary (CHO-K1) cells. Cells were treated with SiNc-NP (90 μg/mL) for the experiment group, fresh media for negative control, or methyl methanesulfonate (MMS, 50 μg/mL) for a positive control.
A quantitative analysis was then performed to evaluate the genotoxicity. The analysis counted the number of micronuclei per 1000 cells.

Turning to `COS(C)(=O)=O` [MMS, methyl methanesulfonate], the “appearance of cell nuclei (fluorescence imaging, DAPI)” value is given as “noticeable numbers of small buds/fragments appeared on or near cell nuclei”.

The values are drawn from patent US10646472B2, “Composition comprising a photosensitive compound in a polymeric nanoparticle, and a method of using the composition” (Oregon State University, priority 2015, dated 2020).
